Measured values as given in ChEMBL document CHEMBL1201862, “PubChem BioAssay data set” (2004).
Active and inactive are the calls of the source.

Legend:
Fatty acid synthase [1] = target: T1, Fatty acid synthase (Homo sapiens, UniProt P49327); experiment: FAS thioesterase domain inhibitors, dose response, biochemical, endpoint fluorescence intensity, uHTS hits (AID 624327); type: functional;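 also: fluorescence from hydrolysis of an O-methyl fluorescein acyl ester substrate by the enzyme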
Fatty acid synthase [2] = target: T1, Fatty acid synthase; experiment: FAS thioesterase domain inhibitors, dose response, biochemical, kinetic fluorescence intensity (AID 624326); type: functional;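 also: rate of fluorescence rise from hydrolysis of a fluorogenic O-methyl fluorescein ester substrate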
[3] = target: T2, Trace amine-associated receptor 1 (Homo sapiens, UniProt Q96RJ0); experiment: Counterscreen for agonists of the human trace amine associated receptor 1 (hTAAR1): Fluorescence-based cell-based high throughput dose response assay to identify hTAAR1 agonist that also desensitize TAAR1 receptor response.; type: functional
T2 sequence (Q96RJ0 whole entry): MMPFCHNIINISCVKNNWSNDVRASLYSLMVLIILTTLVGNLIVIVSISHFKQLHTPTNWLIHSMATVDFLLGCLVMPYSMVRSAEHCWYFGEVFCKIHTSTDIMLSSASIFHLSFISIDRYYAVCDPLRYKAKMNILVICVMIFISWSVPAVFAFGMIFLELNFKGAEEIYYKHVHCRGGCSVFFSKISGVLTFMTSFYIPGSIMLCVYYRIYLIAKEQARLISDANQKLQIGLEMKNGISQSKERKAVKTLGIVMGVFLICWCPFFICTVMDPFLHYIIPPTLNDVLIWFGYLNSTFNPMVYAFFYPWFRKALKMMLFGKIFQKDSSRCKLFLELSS

cells [4] = type: functional, cell-based
[5] = target: T2, Trace amine-associated receptor 1; experiment: Fluorescence-based cell-based high throughput dose response assay to identify agonists of the human trace amine associated receptor 1 (TAAR1).; type: functional
cells [6] = type: functional, cell-based; remark: listed apart in the source
[7] = target: T3, Nuclear receptor subfamily 0 group B member 1 (Homo sapiens, UniProt P51843); type: functional, cell-based;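 also: HEK293T cells transfected with SF-1 and DAX-1 plus StAR promoter luciferase reporter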
T3 sequence (P51843 whole entry): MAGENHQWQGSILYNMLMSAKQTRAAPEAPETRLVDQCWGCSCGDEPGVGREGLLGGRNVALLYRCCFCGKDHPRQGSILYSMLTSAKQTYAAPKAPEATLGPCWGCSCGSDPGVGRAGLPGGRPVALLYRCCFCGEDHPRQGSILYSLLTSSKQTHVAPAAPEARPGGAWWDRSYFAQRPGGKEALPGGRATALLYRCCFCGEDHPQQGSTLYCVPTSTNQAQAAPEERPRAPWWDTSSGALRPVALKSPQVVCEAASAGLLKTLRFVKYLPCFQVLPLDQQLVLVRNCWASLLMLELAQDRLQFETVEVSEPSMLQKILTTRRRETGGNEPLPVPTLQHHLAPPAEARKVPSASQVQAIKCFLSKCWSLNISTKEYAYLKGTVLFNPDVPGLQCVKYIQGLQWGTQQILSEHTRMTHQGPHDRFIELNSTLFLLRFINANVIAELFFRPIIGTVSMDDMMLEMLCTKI

cells [8] = type: functional, cell-based; remark: listed apart in the source
[9] = microbe, parasite or virus in culture; type: functional; details: Mycobacterium tuberculosis
[10] = target: T4, Ubiquitin-conjugating enzyme E2 N (Homo sapiens, UniProt P61088); type: functional;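 also: Dose-response confirmation in a TR-FRET assay detecting UBC13-driven polyubiquitin chain formation, inhibition measured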
T4 sequence (P61088 whole entry): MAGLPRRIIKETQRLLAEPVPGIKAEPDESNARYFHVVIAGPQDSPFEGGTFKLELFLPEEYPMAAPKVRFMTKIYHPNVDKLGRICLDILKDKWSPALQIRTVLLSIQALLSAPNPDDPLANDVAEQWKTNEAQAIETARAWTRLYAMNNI

[11] = cytotoxicity toward NIH3T3 fibroblasts, dose response, counter-screen, cell-based, ATP luminescence, mouse fibroblasts (AID 2010); type: functional;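 also: cells exposed to compound for about 90 hours before reading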
[12] = target: T5, Rac GTPase-activating protein 1 (Homo sapiens, UniProt Q9H0H5); experiment: MgcRacGAP GTPase-activating activity inhibitors, confirmation, biochemical, ADP Hunter fluorescence, primary and confirmatory (AID 624330); type: functional
T5 sequence (Q9H0H5 whole entry): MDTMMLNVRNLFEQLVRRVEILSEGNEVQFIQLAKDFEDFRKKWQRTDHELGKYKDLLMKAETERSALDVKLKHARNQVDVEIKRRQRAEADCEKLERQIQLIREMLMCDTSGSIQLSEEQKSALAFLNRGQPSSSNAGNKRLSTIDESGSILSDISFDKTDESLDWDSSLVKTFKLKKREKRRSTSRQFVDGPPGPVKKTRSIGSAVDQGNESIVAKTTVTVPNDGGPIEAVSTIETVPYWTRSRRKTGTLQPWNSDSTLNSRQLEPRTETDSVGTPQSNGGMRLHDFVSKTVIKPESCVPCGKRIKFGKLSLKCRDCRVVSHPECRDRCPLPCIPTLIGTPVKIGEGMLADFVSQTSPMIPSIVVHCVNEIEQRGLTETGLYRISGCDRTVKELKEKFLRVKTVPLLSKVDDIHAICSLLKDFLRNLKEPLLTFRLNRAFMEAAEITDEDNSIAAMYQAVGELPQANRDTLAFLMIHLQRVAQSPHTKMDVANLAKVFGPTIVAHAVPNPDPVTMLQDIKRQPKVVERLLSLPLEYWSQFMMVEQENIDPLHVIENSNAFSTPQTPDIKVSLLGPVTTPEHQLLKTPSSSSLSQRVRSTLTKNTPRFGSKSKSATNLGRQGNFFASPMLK

[13] = inhibitors of intracellular T. cruzi replication, confirmation, NIH3T3 host cells, beta-gal luminescence (AID 2044); type: functional, cell-based;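 also: intracellular parasites grown in NIH/3T3 mouse fibroblasts as host cells; luminescent beta-galactosidase reporter signal from transgenic T. cruzi replicating inside host cells; inhibitors lower the luminescence signal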
[14] = HeLa cell cytotoxicity, dose response, cytotoxicity control for MgcRacGAP inhibitor project (AID 624300); type: functional
[15] = target: T6, DNA repair protein RAD52 homolog (Homo sapiens, UniProt P43351); type: functional, biochemical
T6 sequence (P43351 whole entry): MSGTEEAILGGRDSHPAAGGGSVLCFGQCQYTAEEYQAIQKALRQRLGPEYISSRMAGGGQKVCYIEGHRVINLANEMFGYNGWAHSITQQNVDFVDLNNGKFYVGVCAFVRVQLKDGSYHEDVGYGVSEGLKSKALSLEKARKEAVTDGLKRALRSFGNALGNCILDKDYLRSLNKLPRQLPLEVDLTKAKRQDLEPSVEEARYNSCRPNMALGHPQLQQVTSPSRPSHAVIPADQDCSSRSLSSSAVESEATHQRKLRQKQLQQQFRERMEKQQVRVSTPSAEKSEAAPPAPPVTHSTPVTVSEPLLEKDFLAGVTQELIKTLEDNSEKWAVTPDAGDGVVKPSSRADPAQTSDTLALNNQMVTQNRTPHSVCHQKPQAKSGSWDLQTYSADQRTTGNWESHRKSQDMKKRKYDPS

Beta-lactamase [16] = target: Beta-lactamase (Salmonella choleraesuis (strain SC-B67), UniProt Q5J463); experiment: Epi-absorbance-based counterscreen for selective VIM-2 inhibitors: dose response biochemical high throughput screening assay to identify inhibitors of TEM-1 serine-beta-lactamase.
Beta-lactamase [17] = target: T7, Beta-lactamase (Pseudomonas aeruginosa, UniProt Q79MP6); experiment: […] counterscreen for selective VIM-2 inhibitors: dose response biochemical high throughput screening assay to identify inhibitors of IMP-1 metallo-beta-lactamase.
Beta-lactamase [18] = target: T7, Beta-lactamase; experiment: IMP-1 metallo-beta-lactamase inhibitors, dose response, selectivity assay for VIM-2 inhibitor project, biochemical, epi-absorbance (AID 1920)
[19] = target: Disintegrin and metalloproteinase domain-containing protein 17 (Homo sapiens, UniProt P78536); experiment: exosite inhibitors of ADAM17, dose response, biochemical (AID 743260)
[20] = ADAM10 protease inhibitors, dose response, selectivity assay for ADAM17 exosite inhibitor project, biochemical, FRET peptide substrate, recombinant human ADAM10 (AID 743259);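 also: ADAM10 enzyme cleaving a FRET peptide substrate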
cells [21] = experiment: cells
Major prion protein = Major prion protein (Homo sapiens, UniProt P04156); type: functional, cell-based
[22] = Luminescence Cell-Based Dose Retest to Confirm Inhibitors of Cancer Stem Cells. [Related pubchem assays (depositor defined):AID2717, AID2721]; type: functional; details: Homo sapiens
[23] = HepG2 cell cytotoxicity, dose response, cytotoxicity control for Shn3 inhibitor project, CellTiter-Glo, cherry-picked (AID 624134); type: functional, cell-based
HEK293 [24] = experiment: cells; details: Homo sapiens
[25] = control 3'UTR Renilla luciferase suppression, dose response, counter-screen for Shn3 inhibitor project, cell-based, Clone20-Shn3RL, cherry-picked (AID 624133); type: functional
HEK293 [26] = experiment: cells; details: Homo sapiens; remark: listed apart in the source
[27] = Shn3 3'UTR reporter inhibitors, dose response, cell-based, Clone20 osteoblasts, firefly luciferase, cherry-picked (AID 624132); type: functional;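 also: firefly luciferase luminescence from reporter carrying the Shn3 3'UTR in osteoblasts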

Which results are given for `CC(C)Oc1ccc(Cc2nnc(S)n2Cc2ccccc2)cc1Cl`?
IC50 (Fatty acid synthase [1]): 6.4 µM (active); IC50 (Fatty acid synthase [2]): 6.09 µM (active)

With `c1ccc(C2CNCCc3ccccc32)cc1` (stereo not drawn) as the compound, how does the IC50 [3] read?
Its IC50 is 3.36 µM (active).

What about the IC50 (cells [4]) of the same compound?
The IC50 was > 29.9 µM (inactive).

What about the EC50 [5] of the same compound?
The EC50 was 1.41 µM (active).

And the EC50 (cells [6])?
The EC50 was > 29.9 µM (inactive).

Which IC50 [7] does the source give for `Cc1cccc(NC(=O)c2ccc3c(=O)n4c(nc3c2)CCCCC4)n1` here?
Its IC50 is > 834 nM (active).

What about the IC50 (cells [8]) of the same compound?
Its IC50 is > 67.5 µM (inactive).

What does the source list for `CCOC(=O)c1c(C)n(-c2ccc(C)cc2)c2ccc(OCC(O)CNCC3CCCO3)cc12` (stereo not drawn)?
CC50 [9]: 13.2 µM (active); IC50 [10]: > 20 µM (inactive); EC50 [11]: > 60 µM (not active); IC50 [12]: 131 µM (active); EC50 [13]: 1.51 µM (active); CC50 [14]: 39.7 µM (active)

For `CN1Cc2c(N3CCOCC3)nc3sc(C(=O)c4ccccc4)c(N)c3c2CC1(C)C`, which AC50 [15] is on record?
Its AC50 is 32.1 µM (active).

With `Cc1n[nH]c(C)c1CCCCOc1ccc([N+](=O)[O-])cc1` as the compound, how does the IC50 (Beta-lactamase [16]) read?
Its IC50 is > 59.6 µM (inactive).

And the IC50 (Beta-lactamase [17])?
Its IC50 is > 59.6 µM (inactive).

And the IC50 (Beta-lactamase [18])?
Its IC50 is > 59.6 µM (inactive).

What does the source list for `Nc1[nH]c(C(=O)c2ccc(Br)cc2)c(-c2ccc(Cl)cc2[N+](=O)[O-])c1C(=O)NCCc1c[nH]c2ccccc12`?
IC50 [19]: > 69.5 µM (inactive); IC50 [20]: 9.24 µM (active)

Which results are given for `Cc1ccc(Cc2c(-c3ccco3)nc3ccc(Br)cn23)cc1`?
IC50 (cells [21]): 56.8 µM (inactive); IC50 (Major prion protein): 8.5 µM (active)

For `N=C(N/N=C\c1ccc(F)cc1)N/N=C\c1ccc(F)cc1`, which AC50 [22] is on record?
Its AC50 is 5.38 µM (active).

And the IC50 [3]?
The IC50 was 4.9 µM (active).

And the IC50 (cells [4])?
The IC50 was > 29.9 µM (inactive).

And the EC50 [5]?
Its EC50 is 1.75 µM (active).

And the EC50 (cells [6])?
Its EC50 is 26.1 µM (inactive).

Which AC50 [23] does the source give for `CN(C)CCNC(=O)c1ccc(Cl)c2cc3ccccc3nc12` here?
Its AC50 is 4.37 µM (active).

What about the EC50 (HEK293 [24]) of the same compound?
The EC50 was > 2.21 µM (active).

And the AC50 [25]?
Its AC50 is 24 µM (active).

What about the AC50 [15] of the same compound?
Its AC50 is 0.846 µM (active).

And the EC50 (HEK293 [26])?
The EC50 was > 59.7 µM (inactive).

What about the AC50 [27] of the same compound?
The AC50 was 9.85 µM (active).
